Assay: In vitro dissolution of theophylline from solutions/suspensions (U.S.P. paddle, simulated gastric fluid, 37° C.)
Format: physicochemical
Conditions: Table II; 50 R.P.M.; no polymers present
Method: Standard U.S.P. Teflon coated stainless steel paddles and round bottom glass beakers were employed. The desired stirrer speed was maintained by commercial feedback control circuitry (50 RPM is illustrated by way of example). The dissolution medium was 1000 ml of Simulated Gastric Fluid U.S.P. without enzyme in most cases, kept at 37° C. by a water bath with a heat/circulator unit.
Suspension was placed into the filled beaker near the surface by 0.27 cm inner radius glass tube attached by plastic tubing to a three ml disposable syringe. Two ml of suspension was pulled up into the tube, the exterior wiped clean, one ml was extruded into the dissolution medium beneath the surface, and the suspension separated from the glass tube by cutting with a razor blade. The technique produced uniform cylindrical matrices in most cases.
In all cases, the total amount of drug released into the dissolution medium was less than ten percent of that needed to saturate the medium, so that sink conditions were maintained.
A precise volume was withdrawn near the top of the dissolution medium for each sample. The volume ranged from 0.1 ml to 3.0 ml. […]
Standard curves were concentrated for theophylline in simulated gastric fluid USP. Samples were diluted to read within the linear concentration range and absorbance was read at 272 nm using a single beam spectrophotometer.

Q: With `Cn1c(=O)c2[nH]cnc2n(C)c1=O` [Theophylline Powder, theophylline] as the compound, how does the “T 50% (time for 50% theophylline to dissolve)” value read?
A: < 5 min

— patent US4717713A, “Controlled release liquid pharmaceutical” (Research Corporation, priority 1983, dated 1988)
